Laboratory results: ChEMBL document CHEMBL1914414, “Selective cholinesterase inhibition by lanostane triterpenes from fruiting bodies of Ganoderma lucidum” (Bioorg Med Chem Lett, 2011)

Experiments:
[1] = target: Acetylcholinesterase (Homo sapiens, UniProt P22303); test: Inhibition of AChE assessed as hydrolysis of acetylcholine preincubated for 15 mins measured after 15 mins by colorimetric Ellman assay
[2] = target: Cholinesterase (Homo sapiens, UniProt P06276); test: Inhibition of BChE assessed as hydrolysis of butrylcholine preincubated for 15 mins measured after 15 mins by colorimetric Ellman assay
Cholinesterase, sequence (P06276 whole entry): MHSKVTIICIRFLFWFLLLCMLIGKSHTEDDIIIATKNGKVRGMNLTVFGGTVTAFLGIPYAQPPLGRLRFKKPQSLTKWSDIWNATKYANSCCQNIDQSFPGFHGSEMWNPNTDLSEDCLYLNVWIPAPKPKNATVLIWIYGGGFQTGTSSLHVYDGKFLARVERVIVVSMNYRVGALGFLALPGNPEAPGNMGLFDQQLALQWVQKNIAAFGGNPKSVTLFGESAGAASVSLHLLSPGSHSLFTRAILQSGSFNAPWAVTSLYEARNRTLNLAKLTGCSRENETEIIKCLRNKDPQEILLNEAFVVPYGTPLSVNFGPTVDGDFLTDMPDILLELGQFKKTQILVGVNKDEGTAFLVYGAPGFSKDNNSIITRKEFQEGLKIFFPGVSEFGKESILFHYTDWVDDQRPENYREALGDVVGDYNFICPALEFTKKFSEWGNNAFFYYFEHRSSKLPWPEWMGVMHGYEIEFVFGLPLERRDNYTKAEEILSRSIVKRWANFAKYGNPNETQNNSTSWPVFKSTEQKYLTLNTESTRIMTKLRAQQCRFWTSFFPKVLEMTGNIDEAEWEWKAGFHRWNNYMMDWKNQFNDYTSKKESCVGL

Acetylcholinesterase, sequence (P22303 whole entry): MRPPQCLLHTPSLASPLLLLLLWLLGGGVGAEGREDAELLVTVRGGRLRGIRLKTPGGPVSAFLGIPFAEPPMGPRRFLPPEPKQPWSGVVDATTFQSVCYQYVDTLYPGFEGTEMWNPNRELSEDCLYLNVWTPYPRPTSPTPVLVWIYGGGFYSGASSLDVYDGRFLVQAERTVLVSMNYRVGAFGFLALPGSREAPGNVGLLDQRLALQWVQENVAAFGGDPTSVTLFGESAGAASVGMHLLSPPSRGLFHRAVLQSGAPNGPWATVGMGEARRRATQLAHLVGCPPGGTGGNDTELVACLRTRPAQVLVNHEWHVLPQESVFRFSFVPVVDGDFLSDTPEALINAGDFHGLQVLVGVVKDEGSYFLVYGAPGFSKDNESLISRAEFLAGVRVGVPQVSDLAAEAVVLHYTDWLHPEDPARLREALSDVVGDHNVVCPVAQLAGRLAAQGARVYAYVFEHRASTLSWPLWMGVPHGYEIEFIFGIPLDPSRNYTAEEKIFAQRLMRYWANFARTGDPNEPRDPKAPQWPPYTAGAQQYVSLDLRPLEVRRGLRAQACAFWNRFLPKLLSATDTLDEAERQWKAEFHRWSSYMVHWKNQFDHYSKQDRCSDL

`C[C@H](CCC(=O)O)[C@H]1CC(=O)[C@@]2(C)C3=C(C(=O)C[C@]12C)[C@@]1(C)CC[C@H](O)C(C)(C)[C@@H]1C[C@@H]3O` [LUCIDENIC ACID N] gave an IC50 [1] of 25.9 µM and an IC50 [2] of 188 µM.

With `CCCCOC(=O)CC[C@@H](C)[C@H]1CC[C@@]2(C)C3=C(C(=O)C[C@]12C)[C@@]1(C)CCC(=O)C(C)(C)[C@@H]1C[C@@H]3O` the IC50 [1] was 12.3 µM and the IC50 [2] was > 200 µM.

`C[C@H](CC(=O)C[C@@H](C)[C@H]1CC(=O)[C@@]2(C)C3=C(C(=O)C[C@]12C)[C@@]1(C)CCC(=O)C(C)(C)[C@@H]1CC3=O)C(=O)O` [GANODERIC ACID E] was tested, and the IC50 [1] was 18.4 µM and the IC50 [2] was > 200 µM.

In the case of `C[C@H](CC[C@@H](O)C(C)(C)O)[C@H]1CC[C@@]2(C)C3=CC[C@H]4C(C)(C)C(=O)CC[C@]4(C)C3=CC[C@]12C` [GANODERMANONDIOL], the IC50 [1] is reported as 25.1 µM and the IC50 [2] is reported as > 200 µM.

In the case of `COC(=O)C(C)CC(=O)C[C@@H](C)[C@H]1C[C@H](O)[C@@]2(C)C3=C(C(=O)C[C@]12C)[C@@]1(C)CCC(=O)C(C)(C)[C@@H]1C[C@@H]3O` (some centres undefined) [METHYL GANODERATE A], the IC50 [1] is reported as 30.3 µM and the IC50 [2] is reported as > 200 µM.

With `CC(CC(=O)C[C@@H](C)[C@H]1CC(=O)[C@@]2(C)C3=C(C(=O)C[C@]12C)[C@@]1(C)CC[C@H](O)C(C)(C)[C@@H]1C[C@@H]3O)C(=O)O` (some centres undefined) [GANODERIC ACID B] the IC50 [1] was 22.6 µM and the IC50 [2] was > 200 µM.

With `C/C(=C\CC[C@@H](C)[C@H]1CC[C@@]2(C)C3=C(CC[C@]12C)[C@@]1(C)CC[C@H](O)C(C)(C)[C@@H]1CC3=O)CO` [LUCIDADIOL] the IC50 [1] was 31 µM and the IC50 [2] was 156 µM.

In the case of `C/C(=C\CC[C@@H](C)[C@H]1CC[C@@]2(C)C3=CC[C@H]4C(C)(C)[C@@H](O)CC[C@]4(C)C3=CC[C@]12C)C(=O)O` [GANODERIC ACID Y], the IC50 [1] is reported as 21.1 µM and the IC50 [2] is reported as > 200 µM.

For `CC(CC(=O)C[C@@H](C)[C@H]1C[C@H](O)[C@@]2(C)C3=C(C(=O)C[C@]12C)[C@@]1(C)CCC(=O)C(C)(C)[C@@H]1CC3)C(=O)O` (some centres undefined) [GANOLUCIDIC ACID A], the IC50 [1] was 23 µM and the IC50 [2] was > 200 µM.

`CCCCOC(=O)C(C)CC(=O)C[C@@H](C)[C@H]1CC(=O)[C@@]2(C)C3=C(C(=O)[C@@H](OC(C)=O)[C@]12C)[C@@]1(C)CC[C@H](O)C(C)(C)[C@@H]1CC3=O` (some centres undefined) was tested, and the IC50 [1] was 9.4 µM and the IC50 [2] was > 200 µM.

In the case of `C[C@H](CCC=C(CO)CO)[C@H]1CC[C@@]2(C)C3=CC[C@H]4C(C)(C)C(=O)CC[C@]4(C)C3=CC[C@]12C` [GANODERIOL F], the IC50 [1] is reported as 21.8 µM and the IC50 [2] is reported as > 200 µM.

`C[C@H](CC[C@H](O)[C@](C)(O)CO)[C@H]1CC[C@@]2(C)C3=CC[C@H]4C(C)(C)C(=O)CC[C@]4(C)C3=CC[C@]12C` [GANODERMANONTRIOL] was tested, and the IC50 [1] was 22.3 µM and the IC50 [2] was > 200 µM.

With `CCCCOC(=O)CC[C@@H](C)[C@H]1CC[C@@]2(C)C3=C(C(=O)C[C@]12C)[C@@]1(C)CC[C@H](O)C(C)(C)[C@@H]1C[C@@H]3O` the IC50 [1] was 11.6 µM and the IC50 [2] was > 200 µM.

For `C/C(=C\CC[C@@H](C)[C@H]1CC[C@@]2(C)C3=CC[C@H]4C(C)(C)[C@@H](O)CC[C@]4(C)C3=CC[C@]12C)CO` [GANODEROL B], the IC50 [1] was 26.8 µM and the IC50 [2] was > 200 µM.

For `COC(=O)CC[C@@H](C)[C@H]1CC(=O)[C@@]2(C)C3=C(C(=O)[C@@H](OC(C)=O)[C@]12C)[C@@]1(C)CC[C@H](O)C(C)(C)[C@@H]1CC3=O` [METHYL LUCIDENATE E2], the IC50 [1] was 17.1 µM and the IC50 [2] was > 200 µM.

In the case of `COC(=O)[C@H](C)CC(=O)C[C@@H](C)[C@H]1C[C@@H]2OC(C)(C)O[C@H]3C[C@H]4C(C)(C)C(=O)CC[C@]4(C)C4=C3[C@@]2(C)[C@]1(C)CC4=O` [METHYL GANODERATE A ACETONIDE], the IC50 [1] is reported as 18.4 µM and the IC50 [2] is reported as > 200 µM.

For `C[C@H](CCC(=O)O)[C@H]1CC(=O)[C@@]2(C)C3=C(C(=O)C[C@]12C)[C@@]1(C)CCC(=O)C(C)(C)[C@@H]1C[C@@H]3O` [LUCIDENIC ACID A], the IC50 [1] was 24 µM and the IC50 [2] was > 200 µM.
